The text below walks through data of PubChem BioAssay AID720589 (Broad Institute, 2013).

Each structure is given as a SMILES string. Calls of active or inactive are those of the source.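 The calls were made as follows: active = fitted curve drops below -35% activity at a concentration within twice the top valid tested dose; inconclusive = no clear call, values can overlap the other calls; inactive = signal rising instead of falling, among other cases.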

A short description of the first assay: ATP-based viability loss in HepG2 cells – cell-based, CellTiter-Glo luminescence, cherry-pick, set 3, cytotoxicity control, dose response (AID 720589). As to conditions: HepG2 viability, ATP luminescence (CellTiter-Glo), 72 h; at 0.011 µM; stronger effect = lower value; 0% = untreated, negative = ATP loss. (In general: Cellular ATP, detected with luciferase, serves as a proxy for viable cell number.)
Turning to `CC(=O)Nc1ccc(OCC(=O)N(CC(C)C)C2CCS(=O)(=O)C2)cc1` (stereo unspecified), the max activity is 42.5% (inactive). The same measure, in the same setting: as for `COC(=O)C[C@H]1CC[C@H]2[C@H](COc3ccc(NC(=O)Nc4cccc(Cl)c4)cc3C(=O)N2C)O1`, the figure is -21.5% (inactive); as for `COC(=O)C[C@@H]1CC[C@@H]2[C@H](COc3ccc(NC(=O)c4ccc(C(F)(F)F)cc4)cc3C(=O)N2C)O1`, -32.2% (inactive).

`N/C(Cc1nc(-c2ccc(F)cc2)cs1)=N\O`: the max activity is 20.4% (inactive). Same read-out and setting: for `CCOc1ccc(-c2noc(CCC(=O)O)n2)cc1` the value was 7.93% (inactive); for `COc1ccc(NS(=O)(=O)c2cc(NC(=O)CNC(=O)c3cccc(OC)c3)ccc2C)cc1`, -35% (inactive); for `Nc1ccc(Oc2cccc(Oc3ccc(N)cc3)c2)cc1`, 11.2% (inactive).

For the molecule `Cc1c(-c2nc(-c3ccc(C(C)(C)C)cc3)no2)n(C)oc1=O`, the max activity was -27.3% (inactive).

The same assay, now with this note: HepG2 viability, ATP luminescence (CellTiter-Glo), 72 h; at 0.035 µM; stronger effect = lower value; 0% = untreated, negative = ATP loss.
On to `CN(C)C(=S)N=Nc1[nH]c2ccccc2c1O`, for which the max activity is 24.6% (inactive).

With `S=C(NCCN1CCOCC1)Nc1ccccc1Cl`, the max activity was -36.4% (inactive). Still for that read-out and setting: for `COc1ccc(C2=Nn3c(nnc3-c3ccccc3OC)SC2)cc1OCC1CC1` the value was -29% (inactive); for `Nc1ccc2oc(-c3cc(Br)ccc3Cl)nc2c1`, -30.5% (inactive); for `O=C(CCCN1C(=O)/C(=C/c2ccccc2Cl)SC1=S)NNC(=O)c1ccc(Cl)cc1Cl`, -21.5% (inactive). On the same count and under the same terms, for `COc1ccc(S(=O)(=O)N2CC[C@@H]3[C@@H](CO)Nc4ccc(-c5ccc(C#N)cc5)cc4[C@@H]32)cc1` the value was -30.2% (inactive); for `CCc1ccc(/C=C2\SC(=S)N(CCC(=O)Nc3cc(C)on3)C2=O)cc1`, -25.9% (inactive).

The same assay, now with this note: HepG2 viability, ATP luminescence (CellTiter-Glo), 72 h; at 0.1 µM; stronger effect = lower value; 0% = untreated, negative = ATP loss.
With `CN(C(=O)COC(=O)c1cc(-c2ccccc2Cl)nc2ccccc12)C1CCS(=O)(=O)C1` (stereo unspecified), the max activity is -27.5% (inactive).

Consider `C/C(=N\Nc1cccc2cccnc12)c1ccccn1`, for which the max activity is -36.8% (inactive).

As to `O=C1Nc2ccccc2C1=Nc1ccccc1-c1ccccc1`, the max activity is 10.3% (inactive). The same measure, in the same setting: for `Cc1nn(Cc2ccccc2Cl)c2sc(C(=O)Nc3ccccc3N3CCOCC3)cc12` the value was 13.3% (inactive).

On to `O=C(O)c1ccc(N/N=C/c2cc(Br)cs2)cc1`, for which the max activity is -24.3% (inactive).

For `COc1cccc(S(=O)(=O)N(C)C[C@H]2OCc3cnnn3CCCC(=O)N([C@@H](C)CO)C[C@H]2C)c1`, the max activity is -29.1% (inactive). On to `Cc1cc(C)cc(OCC(=O)OCC(=O)Nc2cc(S(=O)(=O)N3CCOCC3)ccc2C)c1`, for which the max activity was -15.3% (inactive). The same measure, in the same setting: as for `Cc1noc(C)c1C(=O)Nc1sccc1C(N)=O`, the figure is -22.6% (inactive); as for `CCn1c(C)cc(C(=O)CN2C(=O)c3ccccc3S2(=O)=O)c1C`, -11.5% (inactive).

The same assay, now with this note: HepG2 viability, ATP luminescence (CellTiter-Glo), 72 h; at 0.3 µM; stronger effect = lower value; 0% = untreated, negative = ATP loss.
In the case of `CC(C)(C)C(=O)Nc1ccc(N=Nc2ccccc2)cc1`, the max activity is -12.3% (inactive). Regarding `C[C@H]1CN([C@@H](C)CO)S(=O)(=O)c2ccc(C#Cc3ccncc3)cc2O[C@@H]1CN(C)S(=O)(=O)c1ccccc1`, the max activity was -9.66% (inactive). The same measure, in the same setting: as for `CC(C)CC(NC(=O)c1cccs1)c1nnc(SCc2ccc(Cl)c(Cl)c2)n1C` (stereo unspecified), the figure is -28.1% (inactive); as for `COc1ccc(S(=O)(=O)N2CCCc3nc(-c4ccc(F)cc4)ccc32)cc1`, -23.5% (inactive).

For the molecule `COc1cc(/C=C/C(=O)CC(=O)/C=C/c2ccc(O)c(OC)c2)ccc1O`, the max activity is -27.1% (inactive). Still for that read-out and setting: as for `COc1ccc(CN(C)c2ncnc3sccc23)c(OC)c1OC`, the figure is -16.5% (inactive); as for `CC(C)(C)c1ccc(Oc2ccc(NC(=O)c3ccccc3C(=O)O)cn2)cc1`, -40.7% (inactive); as for `CC(C)CN(C(=O)CN1CCOCC1)c1c(N)n(CC(C)C)c(=O)[nH]c1=O`, -39% (inactive). With `C[C@@H]1CN([C@H](C)CO)C(=O)c2cc(NS(=O)(=O)c3ccc(Cl)cc3)ccc2O[C@@H]1CN(C)Cc1ccc(Cl)c(Cl)c1`, the max activity was -36.6% (inactive). In the case of `Cc1ccc(Cc2c(-c3ccco3)nc3c(C)cc(Br)cn23)cc1`, the max activity is -46.1% (inactive).

Staying with this assay, now noted: HepG2 viability, ATP luminescence (CellTiter-Glo), 72 h; at 0.9 µM; stronger effect = lower value; 0% = untreated, negative = ATP loss.
`C[C@@H]1CN([C@@H](C)CO)C(=O)c2cccc(NC(=O)Nc3ccccc3)c2O[C@@H]1CN(C)Cc1ccc(-c2ccccc2)cc1`: the max activity was -17% (inactive). On the same count and under the same terms, for `COC(=O)C[C@@H]1CC[C@@H]2[C@H](COc3ccc(NC(=O)Nc4ccc(C#N)cc4)cc3C(=O)N2C)O1` the value was -48.5% (inactive); for `COc1cc(/C=N\Nc2nc(-c3ccc(C)cc3)c(NC(C)=O)s2)ccc1O`, -20.6% (inactive); for `O=C1C(=O)N(CCS(=O)(=O)c2ccccc2)c2ccc(Cl)cc21`, -12.3% (inactive).

Take `c1cncc(-c2ccc([C@@H]3[C@H]4CNC[C@@H]3N4CC3CCOCC3)cc2)c1`: the max activity is -28.8% (inactive).

With `CCc1ccc2oc(C(=O)N3CCN(c4ccccc4OC)CC3)cc(=O)c2c1`, the max activity was -16.2% (inactive).

Still in this assay, the particulars now being: HepG2 viability, ATP luminescence (CellTiter-Glo), 72 h; at 2.85 µM; stronger effect = lower value; 0% = untreated, negative = ATP loss.
`COC(=O)C[C@@H]1CC[C@@H]2[C@@H](COc3ccc(NC(=O)Nc4cccc(F)c4)cc3C(=O)N2C)O1`: the max activity was -34.7% (inactive). On the same count and under the same terms, for `C[C@@H]1CN([C@H](C)CO)S(=O)(=O)c2ccc(C#CC3CC3)cc2O[C@@H]1CN(C)Cc1ccccc1F` the value was -22% (inactive); for `Cc1ccsc1/C=N/Nc1cccc(C(=O)O)c1`, -32.4% (inactive).

Take `O=C(Sc1cccc2cccnc12)c1ccccc1Br`: the max activity is -31.3% (inactive). Same read-out and setting: for `C[C@H](CO)N1C[C@H](C)[C@H](CN(C)Cc2ccc(C(=O)Nc3ccccc3N)cc2)Oc2ccc(NS(=O)(=O)c3cccs3)cc2C1=O` the value was -29.1% (inactive); for `CCOc1ccc(-c2cc(CCCC(=O)NCc3ccc(C)cc3)no2)cc1`, -24.4% (inactive).

Regarding `COC(=O)C[C@@H]1CC[C@@H]2[C@@H](COc3ccc(NC(=O)Cc4cccs4)cc3C(=O)N2C)O1`, the max activity is -25% (inactive). On the same count and under the same terms, for `Cc1cc(C)cc(C(=O)NC(=S)Nc2ccc(Cc3ccncc3)cc2)c1` the value was -39.1% (inactive); for `O=C(O)c1cccc(N/N=C/c2ccc(OC(F)(F)F)cc2)c1`, -28.9% (inactive). On the same count and under the same terms, for `COc1ccc(OC)c(-c2nnc3n2N=C(c2ccc(OC)c(OC4CCOC4)c2)CS3)c1` (stereo unspecified) the value was -28.2% (inactive); for `O=C1c2ccc3c4c(ccc(c24)C(=O)N1c1cccc(O)c1)C(=O)N(c1cccc(O)c1)C3=O`, -25.5% (inactive).

Staying with this assay, now noted: HepG2 viability, ATP luminescence (CellTiter-Glo), 72 h; at 8 µM; stronger effect = lower value; 0% = untreated, negative = ATP loss.
For the molecule `CN(C)Cc1c(O)ccc2c1O/C(=C\C=C\c1ccccc1)C2=O`, the max activity is -26.2% (inactive).

On to `CC(=O)c1ccc(N(C(=O)Cn2nnc3ccccc32)C(C(=O)NCc2ccccc2)c2ccccn2)cc1` (stereo unspecified), for which the max activity was -38% (inactive). The same measure, in the same setting: as for `CC(C)c1ccccc1NC(=O)COC(=O)CCN1C(=O)/C(=C\C=C\c2ccccc2)SC1=S`, the figure is -10% (inactive); as for `COc1ccccc1NC(=O)N1[C@@H]2CNC[C@H]1[C@@H]2c1ccc(-c2ccc(C#N)cc2)cc1`, -24.4% (inactive); as for `O=C(COC(=O)c1ccc[nH]c1=O)Nc1ccc(N2CCCCC2)cc1`, -25.3% (inactive). Same read-out and setting: as for `COC(=O)C[C@@H]1CC[C@@H]2[C@H](COc3ccc(NC(=O)c4ccccc4)cc3C(=O)N2C)O1`, the figure is -19.1% (inactive). Consider `COc1ccc(N=C(NN)c2ccc3ccccc3n2)cc1`, for which the max activity was -15.2% (inactive).

Still in this assay, the particulars now being: HepG2 viability, ATP luminescence (CellTiter-Glo), 72 h; at 23.5 µM; stronger effect = lower value; 0% = untreated, negative = ATP loss.
Turning to `C[C@H](CO)N1C[C@H](C)[C@H](CN(C)Cc2ccccc2)Oc2ccc(NC(=O)CCCCCC(=O)Nc3ccccc3N)cc2CC1=O`, the max activity was -23.9% (inactive). The same measure, in the same setting: as for `CCCNC(=O)N1[C@H](C#N)[C@H](c2ccc(C#Cc3cccc(F)c3)cc2)[C@H]1CO`, the figure is 22.8% (inactive).

The assay is the same for the next values; noted with them: HepG2 viability, ATP luminescence (CellTiter-Glo), 72 h; at 26 µM; stronger effect = lower value; 0% = untreated, negative = ATP loss.
As for `O=C(/C=C/c1ccc(Cl)cc1Cl)N(Cc1ccc(Cl)cc1)C1CCS(=O)(=O)C1` (stereo unspecified), the max activity is 14% (inactive).

Consider `C(=Cc1cnc2ccccc2n1)c1ccc2c(c1)OCO2`, for which the max activity is -50.5% (inactive). The same measure, in the same setting: for `COc1ccc(CCC(C)NCC2CCCCC2)cc1` (stereo unspecified) the value was -15.7% (inactive). Same read-out and setting: for `COc1ccc(C(C)(O)c2nc(-c3cccc(F)c3)cs2)cc1` (stereo unspecified) the value was -21.6% (inactive); for `CN1C(=O)c2cc(NC(=O)c3ccc(Cl)cc3)ccc2OC[C@@H]2O[C@@H](CC(=O)NCc3cccc(F)c3)CC[C@H]21`, -22.6% (inactive); for `COC(=O)COc1ccc(-c2nccc(-c3ccccn3)n2)cc1`, 18.7% (inactive). Still for that read-out and setting: for `O=C(CCCN1C(=O)S/C(=C\c2ccccc2)C1=O)NNC(=O)c1ccccc1O` the value was -21.8% (inactive); for `COc1cccc(CN2CCC2(C)C(=O)Nc2cccc3cccnc23)c1F` (stereo unspecified), -24% (inactive).

For the molecule `Cc1c(N=Cc2cc(Br)cc(Br)c2O)cccc1C(=O)O`, the max activity was -9.11% (inactive). As to `Cc1ccc(N2C(=O)c3cccc4c(N)ccc(c34)C2=O)c2cccnc12`, the max activity was -20.7% (inactive).

Turning to `Cc1nc2ncccn2c1-c1csc(Nc2ccc(O)cc2)n1`, the max activity was -23.1% (inactive).
